Here are results for 8 compounds from PubChem BioAssay (NCI).

Some test systems named below: TK-10 renal; NCI-H23 lung; CAKI-1 renal; MOLT-4 leukemia; KM12 colon; MCF7 breast; SNB-75 CNS; NCI-H522 lung; IGROV1 ovarian; HCT-116 colon.
Common to all, as to assay: growth of human tumour cells (NCI), 48 h

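96-well plates; 48 h exposure; 5 concentrations. Endpoints by linear interpolation between flanking doses. Not reached: highest tested concentration assigned. Abbreviation: GI50, concentration required for 50% inhibition of growth. TGI marks complete inhibition of growth.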

As for `COc1ccc(-c2c(C#N)cnc(N)c2-c2nc3cc(C)c(C)cc3[nH]2)cc1`, the GI50 is 5.94 µM in the assay with TK-10 renal; 5.37 µM in the assay on NCI-H23 lung; 14.6 µM in the assay on CAKI-1 renal; above 100 µM with MOLT-4 leukemia; 3.47 µM in the assay on KM12 colon; 6.34 µM with MCF7 breast. In addition, the GI50 was 2.36 µM with SNB-75 CNS, 4.74 µM in the assay with NCI-H522 lung, 16 µM in the assay on IGROV1 ovarian and 4.63 µM with HCT-116 colon. In addition, the TGI in the assay with TK-10 renal was 26.4 µM; in the assay with NCI-H23 lung it was 33.3 µM; with CAKI-1 renal, above 100 µM; in the assay on MOLT-4 leukemia, above 100 µM; with KM12 colon, above 100 µM; with MCF7 breast it was above 100 µM. In addition, the TGI in the assay on SNB-75 CNS was 8.19 µM; in the assay on NCI-H522 lung, 54.7 µM; in the assay with IGROV1 ovarian, above 100 µM; in the assay with HCT-116 colon, above 100 µM.

On to `COc1ccc2oc3c(ccc[n+]3C)c(=O)c2c1`, for which the TGI with TK-10 renal, in the assay with NCI-H23 lung, in the assay with CAKI-1 renal, in the assay on KM12 colon, in the assay on MCF7 breast and in the assay with SNB-75 CNS was above 100 µM each time. The TGI in the assay on NCI-H522 lung, with IGROV1 ovarian and with HCT-116 colon was above 100 µM each time.

For the compound `CC(CNc1nc(Nc2ccc(Cl)c(Cl)c2)nc(C(Cl)(Cl)Cl)n1)N(C)C` (centres undefined), the GI50 in the assay on TK-10 renal is 1.77 µM; in the assay on NCI-H23 lung it was 1.63 µM; in the assay on CAKI-1 renal, 1.7 µM; in the assay with MOLT-4 leukemia, 1.72 µM; in the assay on KM12 colon, 1.7 µM; in the assay on MCF7 breast it was 1.7 µM. Further, the GI50 with SNB-75 CNS is 1.53 µM. Also, the TGI is 3.27 µM with TK-10 renal; 3.38 µM with NCI-H23 lung; 3.59 µM with CAKI-1 renal; 3.78 µM with MOLT-4 leukemia; 3.14 µM with KM12 colon; 3.16 µM in the assay on MCF7 breast. In addition, the TGI in the assay with SNB-75 CNS turned out to be 4.7 µM.

With `COc1cc2c(cc1O)N=C[C@@H]1CCC(O)N1C2=O` (mixture of isomers), the TGI is 4.38 µM in the assay with NCI-H23 lung; 11.7 µM in the assay with CAKI-1 renal; 2.69 µM with MOLT-4 leukemia; 17.9 µM in the assay with KM12 colon; 37 µM with MCF7 breast; 3.26 µM in the assay with SNB-75 CNS. Further, the figures for the TGI in the assay with NCI-H522 lung, in the assay on IGROV1 ovarian and with HCT-116 colon were 0.636 µM, 75.5 µM and 34 µM, respectively.

With `CC(=O)Nc1nc(C)c(-c2cc3c(c(S(C)(=O)=O)c2)C(=O)N([C@@H](C)C2CC2)C3)s1`, the GI50 in the assay on TK-10 renal was 20.7 µM; in the assay with NCI-H23 lung it was 31.1 µM; with CAKI-1 renal, 17.6 µM; with MOLT-4 leukemia, 29.3 µM; in the assay on KM12 colon it was 85 µM; in the assay with MCF7 breast, 23.7 µM. For the same compound, the GI50 is 3.11 µM with SNB-75 CNS, 25.4 µM in the assay on NCI-H522 lung, 27.2 µM in the assay on IGROV1 ovarian and 28.3 µM with HCT-116 colon. For the same compound, the TGI was 75.4 µM with TK-10 renal; above 100 µM with NCI-H23 lung; 55.4 µM in the assay with CAKI-1 renal; above 100 µM with MOLT-4 leukemia; above 100 µM in the assay on KM12 colon; above 100 µM with MCF7 breast. The TGI with SNB-75 CNS was 35.6 µM; in the assay on NCI-H522 lung it was above 100 µM; in the assay with IGROV1 ovarian it was above 100 µM; with HCT-116 colon it was above 100 µM.

As to `CC(=O)O[C@@H]1CN(S(=O)(=O)c2ccc(C)cc2)C[C@@H]1C1CCCCC1`, the TGI in the assay on TK-10 renal is 41.4 µM; in the assay on NCI-H23 lung, above 100 µM; with CAKI-1 renal it was 45.6 µM; with MOLT-4 leukemia, 65.3 µM; in the assay with KM12 colon, 29.8 µM; in the assay with MCF7 breast, 42.1 µM. For the same compound, the TGI turned out to be 44.4 µM in the assay with SNB-75 CNS and 38.6 µM with IGROV1 ovarian.

In the case of `CCc1ncc(C(C)(O)c2ccccc2)n1Cc1ccccc1` (centres undefined), the TGI in the assay on TK-10 renal is above 100 µM; with NCI-H23 lung, above 100 µM; in the assay on CAKI-1 renal, above 100 µM; in the assay with MOLT-4 leukemia, 65.1 µM; in the assay on KM12 colon, above 100 µM; in the assay with MCF7 breast, above 100 µM. Also, the TGI with SNB-75 CNS was above 100 µM; in the assay with NCI-H522 lung, above 100 µM; with IGROV1 ovarian, above 100 µM; in the assay on HCT-116 colon it was 11 µM.

In the case of `CC1CC(c2ccc([N+](=O)[O-])cc2)=Nc2ccccc2S1=O` (centres undefined), the TGI in the assay with TK-10 renal was 91.6 µM; in the assay on NCI-H23 lung it was 37.2 µM; in the assay on CAKI-1 renal, 61.2 µM; with MOLT-4 leukemia, above 100 µM; in the assay with KM12 colon, 26.7 µM; in the assay on SNB-75 CNS, 53.2 µM. Moreover, the TGI worked out at 25.9 µM with NCI-H522 lung, 31.8 µM in the assay with IGROV1 ovarian and 4.72 µM in the assay with HCT-116 colon.
